Reference: patent publication EP4768484A1, “HETEROCYCLIC FUSED RING COMPOUND, AND COMPOSITION AND USE THEREOF” (Shenzhen TargetRx, Inc., priority 2023, dated 2025)

Tests used:
Format in all cases: cell-based
K562 cells = test: Cell growth inhibitory activity assay (CellTiter-Glo), K562 cells; settings: Homo sapiens, 72 h, CTG cell viability
Summary of the method: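 Growth inhibition of human K562 cells, sourced from Nanjing Kebai (CBP60529), was assessed with Promega's CellTiter-Glo kit, which measures viability through ATP quantification. Log-phase cells went into the inner wells of 96-well plates, with PBS in edge wells, incubated overnight at 37 °C and 5% CO2, then exposed to serially diluted compound for 72 h.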

Ba/F3 BCR-ABL1 WT = molecular target: T1, Ba/F3 BCR-ABL1 WT (Homo sapiens, UniProt P00519+P11274); test: Cell growth inhibitory activity assay (CellTiter-Glo), Ba/F3 BCR-ABL1 WT cells; settings: 72 h, CTG cell viability
T1 construct: BCR (N-terminal fusion partner of the oncoprotein); expressed in transfected cells; host or cells: Ba/F3 (lentiviral transduction, monoclonal line)
Summary of the method: (§1)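 Ba/F3 lines stably transduced by lentivirus with WT or mutant BCR-ABL1, alongside untransduced parental Ba/F3, were seeded and incubated overnight at 37 °C, 5% CO2, then exposed to serially diluted compound for 72 h. Viability was read as ATP by CellTiter-Glo luminescence against a day-of-dosing T0 plate; IC50 from four-parameter nonlinear fit.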

Ba/F3 BCR-ABL1 T315I = molecular target: T2, Ba/F3 BCR-ABL1 T315I (Homo sapiens, UniProt P00519+P11274, T315I); test: Cell growth inhibitory activity assay (CellTiter-Glo), Ba/F3 BCR-ABL1 T315I cells; settings: 72 h, CTG cell viability
T2 construct: BCR (N-terminal fusion partner of the oncoprotein); expressed in transfected cells; host or cells: Ba/F3 (lentiviral transduction, monoclonal line)
Summary of the method: as §1

Ba/F3 BCR-ABL1 T315M = molecular target: T3, Ba/F3 BCR-ABL1 T315M (Homo sapiens, UniProt P00519+P11274, T315M); test: Cell growth inhibitory activity assay (CellTiter-Glo), Ba/F3 BCR-ABL1 T315M cells; settings: 72 h, CTG cell viability
T3 construct: BCR (N-terminal fusion partner of the oncoprotein); expressed in transfected cells; host or cells: Ba/F3 (lentiviral transduction, monoclonal line)
Summary of the method: as §1

Ba/F3 parental cells = test: Cell growth inhibitory activity assay (CellTiter-Glo), Ba/F3 parental cells; settings: Mus musculus, BaF3, 72 h, CTG cell viability, read-out: IC50 Ba/F3 BCR-ABL1 Parental
Summary of the method: as §1

[1] = molecular target: T4, Ba/F3 BCR-ABL1 Y253H/E255K (Homo sapiens, UniProt P00519+P11274, E255K/Y253H); test: Cell growth inhibitory activity assay (CellTiter-Glo), Ba/F3 BCR-ABL1 Y253H/E255K cells; settings: 72 h, CTG cell viability
T4 construct: BCR (N-terminal fusion partner of the oncoprotein); expressed in transfected cells; host or cells: Ba/F3 (lentiviral transduction, monoclonal line)
Summary of the method: as §1

[2] = molecular target: T5, Ba/F3 BCR-ABL1 E255V/T315I (Homo sapiens, UniProt P00519+P11274, E255V/T315I); test: Cell growth inhibitory activity assay (CellTiter-Glo), Ba/F3 BCR-ABL1 E255V/T315I cells; settings: 72 h, CTG cell viability
T5 construct: BCR (N-terminal fusion partner of the oncoprotein); expressed in transfected cells; host or cells: Ba/F3 (lentiviral transduction, monoclonal line)
Summary of the method: as §1

Ba/F3 BCR-ABL1 A424T = molecular target: T6, Ba/F3 BCR-ABL1 A424T (Homo sapiens, UniProt P00519+P11274, A424T); test: Cell growth inhibitory activity assay (CellTiter-Glo), Ba/F3 BCR-ABL1 A424T cells; settings: 72 h, CTG cell viability
T6 construct: BCR (N-terminal fusion partner of the oncoprotein); expressed in transfected cells; host or cells: Ba/F3 (lentiviral transduction, monoclonal line)
Summary of the method: as §1

Ba/F3 BCR-ABL1 A337V = molecular target: T7, Ba/F3 BCR-ABL1 A337V (Homo sapiens, UniProt P00519+P11274, A337V); test: Cell growth inhibitory activity assay (CellTiter-Glo), Ba/F3 BCR-ABL1 A337V cells; settings: 72 h, CTG cell viability
T7 construct: BCR (N-terminal fusion partner of the oncoprotein); expressed in transfected cells; host or cells: Ba/F3 (lentiviral transduction, monoclonal line)
Summary of the method: as §1

Ba/F3 BCR-ABL1 P465S = molecular target: T8, Ba/F3 BCR-ABL1 P465S (Homo sapiens, UniProt P00519+P11274, P465S); test: Cell growth inhibitory activity assay (CellTiter-Glo), Ba/F3 BCR-ABL1 P465S cells; settings: 72 h, CTG cell viability
T8 construct: BCR (N-terminal fusion partner of the oncoprotein); expressed in transfected cells; host or cells: Ba/F3 (lentiviral transduction, monoclonal line)
Summary of the method: as §1

Ba/F3 BCR-ABL1 V468F = molecular target: T9, Ba/F3 BCR-ABL1 V468F (Homo sapiens, UniProt P00519+P11274, V468F); test: Cell growth inhibitory activity assay (CellTiter-Glo), Ba/F3 BCR-ABL1 V468F cells; settings: 72 h, CTG cell viability
T9 construct: BCR (N-terminal fusion partner of the oncoprotein); expressed in transfected cells; host or cells: Ba/F3 (lentiviral transduction, monoclonal line)
Summary of the method: as §1

Ba/F3 BCR-ABL1 I502L = molecular target: T10, Ba/F3 BCR-ABL1 I502L (Homo sapiens, UniProt P00519+P11274, I502L); test: Cell growth inhibitory activity assay (CellTiter-Glo), Ba/F3 BCR-ABL1 I502L cells; settings: 72 h, CTG cell viability
T10 construct: BCR (N-terminal fusion partner of the oncoprotein); expressed in transfected cells; host or cells: Ba/F3 (lentiviral transduction, monoclonal line)
Summary of the method: as §1

SMILES | IC50 (K562 cells) [nM] | IC50 (Ba/F3 BCR-ABL1 WT) [nM] | IC50 (Ba/F3 BCR-ABL1 T315I) [nM] | IC50 (Ba/F3 BCR-ABL1 T315M) [nM] | IC50 (Ba/F3 parental cells) [nM] | IC50 [1] [nM] | IC50 [2] [nM] | IC50 (Ba/F3 BCR-ABL1 A424T) [nM] | IC50 (Ba/F3 BCR-ABL1 A337V) [nM] | IC50 (Ba/F3 BCR-ABL1 P465S) [nM] | IC50 (Ba/F3 BCR-ABL1 V468F) [nM] | IC50 (Ba/F3 BCR-ABL1 I502L) [nM]
C[C@@H]1COCc2nc3cc(C(=O)Nc4ccc(OC(F)(F)Cl)cc4)cc(-c4cnc5c(c4)-c4nn(-c6cnccn6)cc4C5)c3n21 [T-71, (R)-N-(4-(chlorodifluoromethoxy)phenyl)-4-methyl-6-(2-(pyrazin-2-yl)-2,4-dihydropyrazolo[3',4':3,4]cyclopenta[1,2-b]pyridin-7-yl)-3,4-dihydro-1H-benzo[4,5]imidazo[2,1-c][1,4]oxazine-8-carboxamide] | ≤ 5 | ≤ 5 | ≤ 5 | 5 to 50 | > 1000 | ≤ 5 | ≤ 5 | 5 to 50 | 50 to 1000 | 50 to 1000 | 50 to 1000 | 5 to 50
Cc1cc(C)nc(-n2cc3c(n2)-c2cc(-c4cc(C(=O)Nc5ccc(OC(F)(F)Cl)cc5)cc5nc6n(c45)[C@H](C)COC6)cnc2C3)n1 [T-76, (R)-N-(4-(chlorodifluoromethoxy)phenyl)-6-(2-(4,6-dimethylpyrimidin-2-yl)-2,4-dihydropyrazolo[3',4':3,4]cyclopenta[1,2-b]pyridin-7-yl)-4-methyl-3,4-dihydro-1H-benzo[4,5]imidazo[2,1-c][1,4]oxazine-8-carboxamide] | ≤ 5 | ≤ 5 | ≤ 5 | ≤ 5 | > 1000 | ≤ 5 | ≤ 5 | ≤ 5 | 50 to 1000 | 50 to 1000 | 50 to 1000 | 5 to 50
C[C@@H]1COCc2nc3cc(C(=O)Nc4ccc(OC(F)(F)Cl)cc4)cc(-c4cnccn4)c3n21 [T-115, (R)-N-(4-(chlorodifluoromethoxy)phenyl)-4-methyl-6-(pyrazin-2-yl)-3,4-dihydro-1H-benzo[4,5]imidazo[2,1-c][1,4]oxazine-8-carboxamide] | ≤ 5 | ≤ 5 | 5 to 50 | > 1000 | > 1000 | 5 to 50 | 5 to 50 | 50 to 1000 | 50 to 1000 | 50 to 1000 | 50 to 1000 | 50 to 1000
